From patent US6706663B2, “Herbicidal 3-heterocyclic substituted benzisothiazole and benzisoxazole compounds” (Wyeth, priority 2000, dated 2004)

How the values were obtained:
ORYSAT (Rice, Tebonnet) [1] = test: Flooded paddy, post-transplant rice tolerance; assay type: in vivo, Oryza sativa, (L.) Tebonnet; details: flooded paddy, post-transplant rice, rated 3-4 weeks after treatment, 0-9 rating scale
Method in brief: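 Steps: transplant two ten-day-old seedlings into silt loam; flood to 1.5-3 cm above soil; apply herbicide post-transplant; maintain water on greenhouse benches; rate stand, vigor, malformation, size and chlorosis on a 0-9 visual scale versus control.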

[2] = tested on: GLXMAW (Soybean, Williams); test: Preemergence herbicidal evaluation; assay type: in vivo, Glycine max, (L.) Merr. cv Williams; details: preemergence, rated 4-5 weeks after treatment
[3] = tested on: ABUTH (Abutilon theophrasti); test: Postemergence herbicidal evaluation; assay type: in vivo, Medic.; details: postemergence
Method in brief: (§1)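 Visual 0–9 injury scores versus control plants, covering stand, vigour, malformation, size, chlorosis and general appearance, taken four to five weeks post-spray and averaged over replicate tests. Plants were sprayed at roughly two weeks old and held on greenhouse benches.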

[4] = tested on: CHEAL (Chenopodium album); test: Preemergence herbicidal evaluation; assay type: in vivo, L.; details: preemergence, rated 4-5 weeks after treatment
Method in brief: (§2)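 Steps: mix seeds with potting soil; plant on ~1 inch soil per cup; spray compound in aqueous acetone; hold on greenhouse benches with routine watering; rate 0–9 visually against control at 4–5 weeks.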

[5] = tested on: AMBEL (Ambrosia artemisifolia); test: Preemergence herbicidal evaluation; assay type: in vivo, L.; details: preemergence, rated 4-5 weeks after treatment
Method in brief: as §2

[6] = tested on: CASOB (Cassia obtusifolia); test: Preemergence herbicidal evaluation; assay type: in vivo, L.; details: preemergence, rated 4-5 weeks after treatment
Method in brief: as §2

ORYSAT (Rice, Tebonnet) [7] = test: Postemergence herbicidal evaluation; assay type: in vivo, Oryza sativa, (L.) Tebonnet; details: postemergence
Method in brief: as §1

[8] = tested on: CHEAL (Chenopodium album); test: Postemergence herbicidal evaluation; assay type: in vivo, L.; details: postemergence
Method in brief: as §1

[9] = tested on: AMBEL (Ambrosia artemisifolia); test: Postemergence herbicidal evaluation; assay type: in vivo, L.; details: postemergence
Method in brief: as §1

[10] = tested on: CASOB (Cassia obtusifolia); test: Postemergence herbicidal evaluation; assay type: in vivo, L.; details: postemergence
Method in brief: as §1

CYPIR (Cyperus iria) = test: Flooded paddy, preemergence weed control; assay type: in vivo; details: rated 3-4 weeks after treatment, 0-9 rating scale
Method in brief: (§3)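 In this preemergence paddy assay, weed seeds or organs are sown at up to 0.5 cm in silt loam and covered by 1.5–3 cm of water for the full test period. After treatment the pots are kept in a greenhouse, and herbicidal effect is rated 0-9 visually against a control.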

SETVI (Setaria viridis) = test: Preemergence herbicidal evaluation; assay type: in vivo, (L.) Beau; details: preemergence, rated 4-5 weeks after treatment
Method in brief: as §2

[11] = tested on: ECHCG (Echinochloa crus-galli); test: Preemergence herbicidal evaluation; assay type: in vivo, (L.) Beau; details: preemergence, rated 4-5 weeks after treatment
Method in brief: as §2

[12] = tested on: GLXMAW (Soybean, Williams); test: Postemergence herbicidal evaluation; assay type: in vivo, Glycine max, (L.) Merr. cv Williams; details: postemergence
Method in brief: as §1

[13] = tested on: ABUTH (Abutilon theophrasti); test: Preemergence herbicidal evaluation; assay type: in vivo, Medic.; details: preemergence, rated 4-5 weeks after treatment
[14] = tested on: MOOVA (Monochoria vaginalis); test: Flooded paddy, preemergence weed control; assay type: in vivo, Presl.; details: rated 3-4 weeks after treatment, 0-9 rating scale
Method in brief: as §3

[15] = tested on: IPOHE (Ipomoea hederacea); test: Preemergence herbicidal evaluation; assay type: in vivo, (L.) Jacq.; details: preemergence, rated 4-5 weeks after treatment
ZEAMX (Corn, Field) = test: Preemergence herbicidal evaluation; assay type: in vivo, Zea mays, L.; details: preemergence, rated 4-5 weeks after treatment
[16] = tested on: IPOHE (Ipomoea hederacea); test: Postemergence herbicidal evaluation; assay type: in vivo, (L.) Jacq.; details: postemergence
Method in brief: as §1

Cn1c(C(F)(F)F)cc(=O)n(-c2ccc3snc(C4OCC(C[S+](C)[O-])O4)c3c2)c1=O (stereo not shown) [Compound 88, 1-methyl-3-[3-[4-[(methylsulfinyl)methyl]-1,3-dioxolan-2-yl]-1,2-benzisothiazol-5-yl]-6-(trifluoromethyl)uracil]
4.0: ORYSAT herbicidal rating (ORYSAT (Rice, Tebonnet) [7]; rate 0.0320 kg/ha) | ORYSAT herbicidal rating (ORYSAT (Rice, Tebonnet) [7]; rate 0.0620 kg/ha)
9.0: Preemergence herbicidal rating GLXMAW ([2]; rate 0.0620 kg/ha) | Preemergence herbicidal rating GLXMAW ([2]; rate 0.1250 kg/ha) | Preemergence herbicidal rating GLXMAW ([2]; rate 0.2500 kg/ha) | ABUTH herbicidal rating ([3]; rate 0.0320 kg/ha) | ABUTH herbicidal rating ([3]; rate 0.0620 kg/ha) | Preemergence herbicidal rating CHEAL ([4]; rate 0.0620 kg/ha) | Preemergence herbicidal rating CHEAL ([4]; rate 0.1250 kg/ha) | Preemergence herbicidal rating CHEAL ([4]; rate 0.2500 kg/ha) | Preemergence herbicidal rating AMBEL ([5]; rate 0.0620 kg/ha) | Preemergence herbicidal rating AMBEL ([5]; rate 0.1250 kg/ha) | Preemergence herbicidal rating AMBEL ([5]; rate 0.2500 kg/ha) | Preemergence herbicidal rating CASOB ([6]; rate 0.1250 kg/ha) | Preemergence herbicidal rating CASOB ([6]; rate 0.2500 kg/ha) | CHEAL herbicidal rating ([8]; rate 0.0320 kg/ha) | CHEAL herbicidal rating ([8]; rate 0.0620 kg/ha) | AMBEL herbicidal rating ([9]; rate 0.0320 kg/ha) | AMBEL herbicidal rating ([9]; rate 0.0620 kg/ha) | CASOB herbicidal rating ([10]; rate 0.0620 kg/ha) | CYPIR herbicidal rating (CYPIR (Cyperus iria); rate 0.1250 kg/ha) | Preemergence herbicidal rating SETVI (SETVI (Setaria viridis); rate 0.1250 kg/ha) | Preemergence herbicidal rating SETVI (SETVI (Setaria viridis); rate 0.2500 kg/ha) | Preemergence herbicidal rating ECHCG ([11]; rate 0.2500 kg/ha) | GLXMAW herbicidal rating ([12]; rate 0.0320 kg/ha) | GLXMAW herbicidal rating ([12]; rate 0.0620 kg/ha) | Preemergence herbicidal rating ABUTH ([13]; rate 0.0620 kg/ha) | Preemergence herbicidal rating ABUTH ([13]; rate 0.1250 kg/ha) | Preemergence herbicidal rating ABUTH ([13]; rate 0.2500 kg/ha) | MOOVA herbicidal rating ([14]; rate 0.1250 kg/ha) | Preemergence herbicidal rating IPOHE ([15]; rate 0.2500 kg/ha) | IPOHE herbicidal rating ([16]; rate 0.0320 kg/ha) | IPOHE herbicidal rating ([16]; rate 0.0620 kg/ha)
5.5: Preemergence herbicidal rating SETVI (SETVI (Setaria viridis); rate 0.0620 kg/ha) | Preemergence herbicidal rating ECHCG ([11]; rate 0.0620 kg/ha)
5.0: ORYSAT herbicidal rating (transplanted rice tolerance) (ORYSAT (Rice, Tebonnet) [1]; rate 0.1250 kg/ha) | Preemergence herbicidal rating CASOB ([6]; rate 0.0620 kg/ha) | CASOB herbicidal rating ([10]; rate 0.0320 kg/ha)
6.5: Preemergence herbicidal rating ECHCG ([11]; rate 0.1250 kg/ha)
0.0: ORYSAT herbicidal rating (transplanted rice tolerance) (ORYSAT (Rice, Tebonnet) [1]; rate 0.0320 kg/ha) | CYPIR herbicidal rating (CYPIR (Cyperus iria); rate 0.0320 kg/ha) | MOOVA herbicidal rating ([14]; rate 0.0320 kg/ha)
6.0: Preemergence herbicidal rating IPOHE ([15]; rate 0.0620 kg/ha) | Preemergence herbicidal rating ZEAMX (ZEAMX (Corn, Field); rate 0.1250 kg/ha)
7.5: Preemergence herbicidal rating IPOHE ([15]; rate 0.1250 kg/ha)
3.5: Preemergence herbicidal rating ZEAMX (ZEAMX (Corn, Field); rate 0.0620 kg/ha)
7.0: Preemergence herbicidal rating ZEAMX (ZEAMX (Corn, Field); rate 0.2500 kg/ha)

Cn1c(C(F)(F)F)cc(=O)n(-c2ccc3snc(C4OCC(CS(C)(=O)=O)O4)c3c2)c1=O (single isomer, unassigned) [Compound 86, 1-methyl-3-[3-[4-[(methylsulfonyl)methyl]-1,3-dioxolan-2-yl]-1,2-benzisothiazol-5-yl]-6-(trifluoromethyl)uracil]
8.0: Preemergence herbicidal rating ZEAMX (ZEAMX (Corn, Field); rate 0.1250 kg/ha)
7.0: Preemergence herbicidal rating GLXMAW ([2]; rate 0.0620 kg/ha) | CASOB herbicidal rating ([10]; rate 0.0320 kg/ha)
5.0: ORYSAT herbicidal rating (transplanted rice tolerance) (ORYSAT (Rice, Tebonnet) [1]; rate 0.1250 kg/ha) | MOOVA herbicidal rating ([14]; rate 0.0320 kg/ha) | Preemergence herbicidal rating ZEAMX (ZEAMX (Corn, Field); rate 0.0620 kg/ha)
9.0: Preemergence herbicidal rating GLXMAW ([2]; rate 0.1250 kg/ha) | Preemergence herbicidal rating GLXMAW ([2]; rate 0.2500 kg/ha) | ABUTH herbicidal rating ([3]; rate 0.0320 kg/ha) | ABUTH herbicidal rating ([3]; rate 0.0620 kg/ha) | Preemergence herbicidal rating CHEAL ([4]; rate 0.0620 kg/ha) | Preemergence herbicidal rating CHEAL ([4]; rate 0.1250 kg/ha) | Preemergence herbicidal rating CHEAL ([4]; rate 0.2500 kg/ha) | Preemergence herbicidal rating AMBEL ([5]; rate 0.0620 kg/ha) | Preemergence herbicidal rating AMBEL ([5]; rate 0.1250 kg/ha) | Preemergence herbicidal rating AMBEL ([5]; rate 0.2500 kg/ha) | Preemergence herbicidal rating CASOB ([6]; rate 0.1250 kg/ha) | Preemergence herbicidal rating CASOB ([6]; rate 0.2500 kg/ha) | CHEAL herbicidal rating ([8]; rate 0.0320 kg/ha) | CHEAL herbicidal rating ([8]; rate 0.0620 kg/ha) | AMBEL herbicidal rating ([9]; rate 0.0320 kg/ha) | AMBEL herbicidal rating ([9]; rate 0.0620 kg/ha) | CASOB herbicidal rating ([10]; rate 0.0620 kg/ha) | Preemergence herbicidal rating SETVI (SETVI (Setaria viridis); rate 0.1250 kg/ha) | Preemergence herbicidal rating SETVI (SETVI (Setaria viridis); rate 0.2500 kg/ha) | Preemergence herbicidal rating ECHCG ([11]; rate 0.1250 kg/ha) | Preemergence herbicidal rating ECHCG ([11]; rate 0.2500 kg/ha) | GLXMAW herbicidal rating ([12]; rate 0.0320 kg/ha) | GLXMAW herbicidal rating ([12]; rate 0.0620 kg/ha) | Preemergence herbicidal rating ABUTH ([13]; rate 0.0620 kg/ha) | Preemergence herbicidal rating ABUTH ([13]; rate 0.1250 kg/ha) | Preemergence herbicidal rating ABUTH ([13]; rate 0.2500 kg/ha) | MOOVA herbicidal rating ([14]; rate 0.1250 kg/ha) | Preemergence herbicidal rating IPOHE ([15]; rate 0.1250 kg/ha) | Preemergence herbicidal rating IPOHE ([15]; rate 0.2500 kg/ha) | Preemergence herbicidal rating ZEAMX (ZEAMX (Corn, Field); rate 0.2500 kg/ha) | IPOHE herbicidal rating ([16]; rate 0.0320 kg/ha) | IPOHE herbicidal rating ([16]; rate 0.0620 kg/ha)
0.0: ORYSAT herbicidal rating (transplanted rice tolerance) (ORYSAT (Rice, Tebonnet) [1]; rate 0.0320 kg/ha) | CYPIR herbicidal rating (CYPIR (Cyperus iria); rate 0.0320 kg/ha) | CYPIR herbicidal rating (CYPIR (Cyperus iria); rate 0.1250 kg/ha)
7.5: Preemergence herbicidal rating SETVI (SETVI (Setaria viridis); rate 0.0620 kg/ha) | Preemergence herbicidal rating ECHCG ([11]; rate 0.0620 kg/ha)
4.0: Preemergence herbicidal rating CASOB ([6]; rate 0.0620 kg/ha) | ORYSAT herbicidal rating (ORYSAT (Rice, Tebonnet) [7]; rate 0.0320 kg/ha) | Preemergence herbicidal rating IPOHE ([15]; rate 0.0620 kg/ha)
5.5: ORYSAT herbicidal rating (ORYSAT (Rice, Tebonnet) [7]; rate 0.0620 kg/ha)
